Patent US8173693B2, “Benzenesulfonamide derivatives and pharmaceutical composition thereof” (Purzer Pharmaceutical Co., Ltd., priority 2010, dated 2012)

Experiments:
[1] = system: Human Bladder Cancer TSGH cells; assay: MTT assay; type: cell-based; conditions: 72 hr
Procedure: (§1) Human Bladder Cancer TSGH cells, Human hepatoblastoma HepG2 cells, Human colorectal adenocarcinoma HT-29 cells, human nasopharyngeal carcinoma KB cells, Human gastric adenocarcinoma AGS cells, Human breast carcinoma MCF-7 cells, lung carcinoma A549 cells, and Human prostate carcinoma PC-3 cells were used in the preliminary cytotoxicity assays of the benzenesulfonamide derivatives of the present invention, and the inhibition activity against the tumor cells was evaluated.
(§2) All cell lines were maintained in RPMI 1640 supplied with 10% fetal bovine serum and maintained in a humidified chamber at 37° C. containing 5% CO2. Then, all cell lines were treated with compounds for 72 hr and subsequently incubated with 0.4 mg/mL of MTT at 37° C. for 2 hr. The medium was removed, and DMSO was added to dissolve MTT precipitate. Cell proliferation was determined by measuring the optical density at 540 nm using a Thermomax microplate reader (Molecular Devices, Sunnyvale, Calif.), and the IC50 values of the benzenesulfonamide derivatives of the present invention were calculated.

[2] = system: Human colorectal adenocarcinoma HT-29 cells; assay: MTT assay; type: cell-based; conditions: 72 hr
Procedure: as §1, §2

[3] = system: Human hepatoblastoma HepG2 cells; assay: MTT assay; type: cell-based; conditions: 72 hr, read-out: IC50 HepaG2
Procedure: as §1, §2

[4] = system: human nasopharyngeal carcinoma KB cells; assay: MTT assay; type: cell-based; conditions: Homo sapiens, MTT assay; for IC50: KB, 72 hr; for inhibition at 20 µM: KB cells, read-out: Percentage of tumor cells inhibited by 20 μM
Procedure: as §1, §2

[5] = system: Human colorectal adenocarcinoma HT-29 cells; assay: SRB assay; type: cell-based; conditions: 48 hr
Procedure: as §1
(§3) All cell lines were maintained in RPMI 1640 supplied with 10% fetal bovine serum into 96-well microtiter plates and maintained in a humidified chamber at 37° C. containing 5% CO2. After 24 hr, cell lines in partial wells were fixed in situ with 10% trichloroacetic acid (TCA) to represent a measurement at the time of drug addition (T0). Then, cell lines in other wells were incubated with the benzenesulfonamide derivatives of the present invention for an additional 48 hr, and fixed in situ with 10% TCA to represent a measurement at the time of stopping reaction (Tx). After rinsing the plates with PBS and air-drying, 0.4% sulforhodamine B solution (weight per volume in 1% acetic acid) was added to each well and the plates were incubated for 10 min at room temperature. Unbound sulforhodamine B was removed with 1% acetic acid and the plates were air-dried. Cells bound with sulforhodamine B was subsequently solubilized with 10 mM Tris base (Trizma; Sigma). Cell proliferation was determined by measuring the optical density at 515 nm using a Thermomax microplate reader (Molecular Devices, Sunnyvale, Calif.). The half-inhibition concention (GI50) of the benzenesulfonamide derivatives of the present invention was obtained from the detected optical density.

[6] = system: Human hepatoblastoma HepG2 cells; assay: SRB assay; type: cell-based; conditions: 48 hr
Procedure: as §1, §3

[7] = system: lung carcinoma A549 cells; assay: SRB assay; type: cell-based; conditions: Homo sapiens, 48 hr
Procedure: as §1, §3

[8] = system: Human prostate carcinoma PC-3 cells; assay: SRB assay; type: cell-based; conditions: Homo sapiens; for GI50: PC-3, 48 h; for IC50: PC-3, 48 hr
Procedure: as §1, §3

[9] = system: Human breast carcinoma MCF-7 cells; assay: SRB assay; type: cell-based; conditions: MCF7, 48 hr
Procedure: as §1, §3

[10] = system: Human gastric adenocarcinoma AGS cells; assay: SRB assay; type: cell-based; conditions: 48 hr
Procedure: as §1, §3

[11] = system: Human gastric adenocarcinoma AGS cells; assay: SRB assay; type: cell-based; conditions: 48 hr; remark: listed apart in the source
[12] = system: Human hepatoblastoma HepG2 cells; assay: SRB assay; type: cell-based; conditions: 48 hr; remark: listed apart in the source
[13] = system: Human colorectal adenocarcinoma HT-29 cells; assay: SRB assay; type: cell-based; conditions: 48 hr; remark: listed apart in the source
[14] = system: Human breast carcinoma MCF-7 cells; assay: SRB assay; type: cell-based; conditions: MCF7, 48 hr; remark: listed apart in the source
[15] = system: lung carcinoma A549 cells; assay: SRB assay; type: cell-based; conditions: Homo sapiens, 48 hr; remark: listed apart in the source

Row | melting point [°C] | IC50 [1] [µM] | IC50 [2] [µM] | IC50 [3] [µM] | IC50 [4] [µM] | SMILES | inhibition at 20 µM [4] [%] | further results
1 | 178 to 179 | 7.5 | 51.9 | 44.7 | > 20 | O=S(=O)(Nc1cccc2cc[nH]c12)c1ccccc1 [Compound 5a, N-(1H-Indol-7-yl)benzenesulfonamide] | 30 | –
2 | 215 to 216 | 37.5 | 65.9 | 39.2 | > 20 | NS(=O)(=O)c1ccc(S(=O)(=O)Nc2cccc3cc[nH]c23)cc1 [Compound 5g, N-(1H-Indol-7-yl)-4-sulfamoylbenzenesulfonamide] | 12 | –
3 | 249 | – | – | – | – | Cc1ccc(C)c2c1[nH]c1c(NS(=O)(=O)c3cc(Cl)c(Oc4ccc([N+](=O)[O-])cc4Cl)c(Cl)c3)cccc12 [Compound 61, 3,5-Dichloro-4-(2-chloro-4-nitrophenoxy)-N-(5,8-dimethyl-9H-carbazol-1-yl)benzenesulfonamide] | – | –
4 | 202 to 203 | 40.6 | 17.6 | 19.8 | > 20 | Cc1ccc(C)c2c1[nH]c1c(NS(=O)(=O)c3ccc([N+](=O)[O-])cc3)cccc12 [Compound 6e, N-(5,8-Dimethyl-9H-carbazol-1-yl)-4-nitrobenzenesulfonamide] | 9 | –
5 | 151 to 152 | – | – | – | – | CCN(c1cccc2c1[nH]c1c(C)ccc(C)c12)S(=O)(=O)c1ccc(OC)cc1 [Compound 16c, N-(5,8-Dimethyl-9H-carbazol-1-yl)-N-ethyl-4-methoxybenzenesulfonamide] | – | GI50 [5]: 0.05 µM; GI50 [6]: 0.04 µM; GI50 [7]: 0.4 µM; GI50 [8]: 0.06 µM; IC50 [8]: 0.3 µM; GI50 [9]: 0.4 µM; GI50 [10]: 0.4 µM; IC50 [11]: 1 µM; IC50 [12]: 0.08 µM; IC50 [13]: 0.3 µM; IC50 [14]: 0.8 µM; IC50 [15]: > 10 µM
6 | 232 to 234 | – | – | – | – | Cc1ccc(C)c2c1[nH]c1c(NS(=O)(=O)c3ccc(Cl)s3)cccc12 [Compound 6k, 5-Chloro-thiophene-2-sulfonic acid (5,8-dimethyl-9H-carbazol-1-yl)amide] | – | GI50 [5]: 2.1 µM; GI50 [6]: 1.3 µM; GI50 [7]: 6.5 µM; GI50 [8]: 4.6 µM; IC50 [8]: > 10 µM; GI50 [9]: > 10 µM; GI50 [10]: 6.7 µM; IC50 [11]: > 10 µM; IC50 [12]: 2.7 µM; IC50 [13]: 5.6 µM; IC50 [14]: > 10 µM; IC50 [15]: 10 µM
7 | 205 to 207 | – | – | – | – | COc1cc(S(=O)(=O)Nc2cccc3c2[nH]c2c(C)ccc(C)c23)cc(OC)c1OC [Compound 6i, N-(5,8-Dimethyl-9H-carbazol-1-yl)-3,4,5-trimethoxybenzenesulfonamide] | – | –
8 | 204 to 206 | – | – | – | – | COc1ccc(S(=O)(=O)Nc2cccc3c2[nH]c2ccccc23)cc1 [Compound 21a, N-(9H-Carbazol-1-yl)-4-methoxybenzenesulfonamide] | – | GI50 [5]: 0.03 µM; GI50 [6]: 0.04 µM; GI50 [7]: 0.9 µM; GI50 [8]: 0.2 µM; IC50 [8]: > 10 µM; GI50 [9]: 0.07 µM; GI50 [10]: 0.01 µM; IC50 [11]: 0.07 µM; IC50 [12]: 0.08 µM; IC50 [13]: 0.07 µM; IC50 [14]: 4.4 µM; IC50 [15]: 1.7 µM
9 | 254 to 255 | 39 | 18.7 | 16.6 | > 20 | Cc1ccc(C)c2c1[nH]c1c(NS(=O)(=O)c3ccc(N)cc3)cccc12 [Compound 6f, 4-Amino-N-(5,8-dimethyl-9H-carbazol-1-yl)benzenesulfonamide] | 34 | –
10 | 185 to 186 | 2.1 | 1.1 | 1.7 | 2.5 | Cc1ccc(S(=O)(=O)Nc2cccc3c2[nH]c2c(C)ccc(C)c23)cc1 [Compound 6b, N-(5,8-Dimethyl-9H-carbazol-1-yl)-4-methylbenzenesulfonamide] | – | –
11 | 262 to 263 | – | – | – | – | COc1ccc(NC(=O)Nc2cccc3c2[nH]c2c(C)ccc(C)c23)cc1 [Compound 14b, 1-(5,8-Dimethyl-9H-carbazol-1-yl)-3-(4-methoxyphenyl)urea] | – | –
12 | 217 to 218 | 90 | 81.6 | 34.4 | > 20 | Cc1ccc(C)c2c1[nH]c1c(NS(=O)(=O)c3ccc(Cl)cc3)cccc12 [Compound 6d, 4-Chloro-N-(5,8-dimethyl-9H-carbazol-1-yl)benzenesulfonamide] | 46 | –
13 | 187 to 188 | 125 | 126 | 87.8 | > 20 | O=[N+]([O-])c1ccccc1S(=O)(=O)Nc1cccc2cc[nH]c12 [Compound 5h, N-(1H-Indol-7-yl)-2-nitrobenzenesulfonamide] | 13 | –
14 | 300 to 301 | – | – | – | – | Cc1ccc(C)c2c1[nH]c1c(NC(=O)Nc3ccccc3)cccc12 [Compound 14a, 1-(5,8-Dimethyl-9H-carbazol-1-yl)-3-phenylurea] | – | –
15 | 237 to 238 | 160 | 141 | 66.7 | > 20 | Cc1ccc(C)c2c1[nH]c1c(NS(=O)(=O)c3ccccc3)cccc12 [Compound 6a, N-(5,8-Dimethyl-9H-carbazol-1-yl)benzenesulfonamide] | 32 | –
16 | 202 to 203 | 37.2 | 17 | 21 | > 20 | Cc1ccc(C)c2c1[nH]c1c(NS(=O)(=O)c3ccccc3[N+](=O)[O-])cccc12 [Compound 6h, N-(5,8-Dimethyl-9H-carbazol-1-yl)-2-nitrobenzenesulfonamide] | 24 | –
17 | 161 to 162 | 2.4 | 1.7 | 1.9 | 3.4 | COc1ccc(S(=O)(=O)Nc2cccc3cc[nH]c23)cc1 [Compound 5c, N-(1H-Indol-7-yl)-4-methoxybenzenesulfonamide] | – | –
18 | 163 to 164 | 35.6 | 19.8 | 14 | 20 | O=S(=O)(Nc1cccc2cc[nH]c12)c1ccc(Cl)cc1 [Compound 5d, 4-Chloro-N-(1H-indol-7-yl)benzenesulfonamide] | – | –
19 | 185 to 186 | 95.6 | 113 | 46.9 | > 20 | O=[N+]([O-])c1ccc(S(=O)(=O)Nc2cccc3cc[nH]c23)cc1 [Compound 5e, N-(1H-Indol-7-yl)-4-nitrobenzenesulfonamide] | 14 | –
20 | 290 to 291 | 80.7 | 124 | 139 | 19.1 | Cc1ccc(C)c2c1[nH]c1c(NS(=O)(=O)c3ccc(S(N)(=O)=O)cc3)cccc12 [Compound 6g, N-(5,8-Dimethyl-9H-carbazol-1-yl)-4-sulfamoylbenzenesulfonamide] | – | –
21 | 159 to 160 | 9.4 | 7.9 | 7.9 | > 20 | Cc1ccc(S(=O)(=O)Nc2cccc3cc[nH]c23)cc1 [Compound 5b, N-(1H-Indol-7-yl)-4-methylbenzenesulfonamide] | 39 | –

Row | SMILES | melting point [°C] | IC50 [1] [µM] | IC50 [2] [µM] | IC50 [3] [µM] | IC50 [4] [µM] | inhibition at 20 µM [4] [%] | further results
22 | Cc1ccc(S(=O)(=O)Nc2cccc3c(/N=N/c4ccccc4)c[nH]c23)cc1 [Compound 7b, 4-Methyl-N-(3-phenylazo-1H-indol-7-yl)benzenesulfonamide] | 212 to 213 | 16 | 17.9 | 30.8 | > 20 | 35 | –
